Source: PubChem BioAssay (NCI)
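Tested at 5 concentrations; 48 h exposure; 96-well plates; endpoints linearly interpolated, else capped at highest concentration. TGI: concentration producing complete growth inhibition.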

Legend:
Test in all cases: NCI tumour cell line growth inhibition, 48 h
OVCAR-4 ovarian = test system: OVCAR-4 ovarian
NCI-H522 lung = test system: NCI-H522 lung
NCI-H460 lung = test system: NCI-H460 lung
SN12C renal = test system: SN12C renal
SR leukemia = test system: SR leukemia
MDA-MB-231 breast = test system: MDA-MB-231 breast
U251 CNS = test system: U251 CNS
DU-145 prostate = test system: DU-145 prostate
CCRF-CEM leukemia = test system: CCRF-CEM leukemia

| SMILES | TGI (OVCAR-4 ovarian) | TGI (NCI-H522 lung) | TGI (NCI-H460 lung) | TGI (SN12C renal) | TGI (SR leukemia) | TGI (MDA-MB-231 breast) | TGI (U251 CNS) | TGI (DU-145 prostate) | TGI (CCRF-CEM leukemia) |
| --- | --- | --- | --- | --- | --- | --- | --- | --- | --- |
| Cc1ccc([C@@H]2[C@@H](C(=O)c3ccccn3)[C@H](c3ccc(C)cc3)C[C@](O)(c3ccccn3)[C@H]2C(=O)c2ccccn2)cc1 | > 100 µM | > 100 µM | 10.7 µM | > 100 µM | > 100 µM | > 100 µM | > 100 µM | > 100 µM | 4.43 µM |
| O=C(O)CSc1nnc(COc2ccc(Cl)cc2)n1-c1ccccc1 | > 100 µM | > 100 µM | > 100 µM | > 100 µM |  | > 100 µM | > 100 µM | > 100 µM | > 100 µM |
| CN(C)/N=N/c1nc2c(c(=O)n(C)c(=O)n2C)n1C | > 100 µM | > 100 µM | > 100 µM | > 100 µM | > 100 µM | > 100 µM | > 100 µM | > 100 µM | > 100 µM |
| O=C(NNC(=S)Nc1ccc(Cl)cc1)c1cc(-c2ccccc2)nc2ccccc12 | 24.3 µM | 23.2 µM | 25.6 µM | 21.4 µM | 4.72 µM | 29.4 µM | 16.1 µM | 16.5 µM | 6.91 µM |
| COc1cc(O)c(/C=N/N=C(\N)NO)c(OC)c1 | > 10 µM | > 10 µM | > 10 µM | > 10 µM |  | > 10 µM | > 10 µM | > 10 µM | > 10 µM |
| O=C(CCCCCCCCC(=O)NN1C(=O)/C(=C\c2ccc(O)c(O)c2)SC1c1ccc(Cl)cc1)NN1C(=O)/C(=C\c2ccc(O)c(O)c2)SC1c1ccc(Cl)cc1 (stereo not given) | > 100 µM | 32.5 µM | > 100 µM | > 100 µM | 28.3 µM | > 100 µM | > 55.1 µM | 81.1 µM |  |
| OCCCCCNc1c2ccccc2nc2ccccc12 | 11.4 µM | 10.2 µM | 3.5 µM | 9.34 µM | > 23.2 µM | 10.7 µM | 20.8 µM | 25.3 µM | > 61.7 µM |
| S=C(N/N=C\C=N/NC(=S)N1CCCCC1)N1CCCCC1 |  | > 100 µM | > 41.5 µM | > 100 µM |  | > 100 µM | > 100 µM | > 100 µM |  |
| COC(=O)C(/C(=N/NC(N)=O)C(=O)Nc1ccc(C)cc1)c1nc2ccc([N+](=O)[O-])cc2[nH]c1=O (stereo not given) | > 100 µM | > 100 µM | > 100 µM | > 100 µM | > 100 µM | > 100 µM | > 100 µM |  |  |
| CN1C(=O)C2C(=O)N(Cc3ccccc3)CC(=O)N2c2cccnc21 (stereo not given) | > 100 µM | > 100 µM | > 100 µM |  | > 100 µM | > 100 µM | > 100 µM |  | > 100 µM |
| OCC1CCCCCCCCCCC12SCCCS2 (stereo not given) | > 100 µM | > 100 µM | > 100 µM |  | > 100 µM |  | > 100 µM | > 100 µM | > 100 µM |
| Nc1ccc2nc(-c3ccccn3)c(-c3ccccn3)nc2c1 | > 100 µM | > 100 µM | > 100 µM | > 100 µM | > 100 µM | > 100 µM | > 100 µM | > 100 µM | > 100 µM |
| COc1cc(-c2cc(=O)c3cc4c(cc3[nH]2)OCO4)cc(OC)c1O | > 10 µM | > 10 µM | > 10 µM | > 10 µM | > 10 µM | > 10 µM | > 10 µM | > 10 µM | > 10 µM |
| CC1=C2C(=O)NN=C2CCN1c1ccc(Br)cc1 | > 100 µM | > 100 µM | > 100 µM | > 100 µM |  | > 100 µM | > 100 µM | > 100 µM | 8.26 µM |
| c1ccc2c(c1)OC(N1CCCC1)c1cnc(N3CCCC3)nc1-2 (stereo not given) | > 100 µM |  | > 100 µM | > 100 µM | > 100 µM | > 100 µM | > 100 µM | > 100 µM | 67.3 µM |
| CSc1nc(Cl)c2c(n1)Sc1nc3cc4c(cc3n1C2O)OCCO4 (stereo not given) | 44.2 µM | 0.386 µM | 2.39 µM | 46.6 µM |  | 34.3 µM | 14.3 µM | 15.9 µM | 3.76 µM |
| O=C(CN1c2ccccc2Sc2ccccc21)N1CCNCC1 | > 100 µM |  | > 100 µM | > 100 µM |  | > 100 µM | > 100 µM | > 100 µM | > 100 µM |
| Nc1cc(CO)cc(Nc2nc3ccc(Cl)cc3c3[nH]c4ccccc4c23)c1 |  | 12.7 µM | 6.56 µM | 12.9 µM | 7.33 µM | 12 µM | 23.9 µM | 15.2 µM | 23.8 µM |
| Nc1nc2cc3nc(N)c(N)nc3cc2nc1N |  | > 100 µM | > 100 µM | > 100 µM | > 100 µM | > 100 µM | > 100 µM | > 100 µM | > 100 µM |
| CN(C)CCCOc1nc2c(c(=O)n(C)c(=O)n2C)n1C (tested in a mixture with another compound) | > 100 µM | > 100 µM | > 100 µM | 30.1 µM |  | 32.2 µM | > 100 µM | 39.5 µM | > 100 µM |
| COC(=O)C(CCC#N)(CCC#N)C(=O)OC |  | > 100 µM | > 100 µM | > 100 µM | > 100 µM |  | > 100 µM |  | > 100 µM |
| CC(O[Si](c1ccccc1)(c1ccccc1)C(C)(C)C)[C@H](NC(=O)OC(C)(C)C)C(=O)O[Si](c1ccccc1)(c1ccccc1)C(C)(C)C (stereo not given in full) | 16.5 µM |  | 25.5 µM |  | 82 µM |  | 31.7 µM | 25.6 µM | 76.6 µM |
| CCN1CC2=C(NC(=S)NC2c2ccc(Cl)cc2)/C(=C/c2ccc(Cl)cc2)C1 (stereo not given) | > 100 µM | > 100 µM | 45.8 µM |  |  | > 100 µM | > 100 µM | > 100 µM | 87.7 µM |
| Cc1nnc2n1N=C(c1cc(F)c(Cl)cc1Cl)/C(=C/c1ccc(Cl)cc1)S2 | 33.3 µM | > 100 µM | 38.9 µM | 36 µM |  | 47.6 µM | 38.5 µM | 48.6 µM | > 100 µM |
| NC(=O)N/N=C(\Cc1nc2ccc(Cl)cc2[nH]c1=O)C(=O)Nc1ccc(Cl)cc1Cl | > 100 µM | > 100 µM | > 100 µM | > 100 µM |  | > 100 µM | > 100 µM | > 100 µM | > 100 µM |
